Results from article PMC2806825, “The Expression Level of CB1 and CB2 Receptors Determines Their Efficacy at Inducing Apoptosis in Astrocytomas” (PLoS ONE, 2010).

Legend:
[1] = molecular target: T1, CB2 receptors (Mus musculus, UniProt P47936); assay: ERK1/2 phosphorylation by Western blot in CB2-expressing DBT subclones; type: cell-based
T1 construct: expressed in transfected cells
Experimental: (§1) Cells were expanded in Costar 24-well plates (10^5 cells per well) in culture media (0.5 ml per well). Once they reached ∼70% confluence, they were rinsed with PBS and kept for an additional 24 hrs in serum-deprived media, at which time point drugs or vehicle (DMSO, 0.1%) prepared in 50 µl serum-deprived media were directly added to each well for the corresponding number of minutes. We chose to directly administer the drugs to cell culture media instead of replacing the media to avoid stress-induced increases in basal kinase phosphorylation (Figure S1). To quantify Erk phosphorylation, reactions were stopped by removing the media and adding NuPAGE® LDS sample buffer (300 µl, Invitrogen, Carlsbad, CA) supplemented with 2-mercaptoethanol (1%). An aliquot of each sample (20 µl) was loaded onto NuPAGE® 4–12% Bis-Tris pre-cast gels (Inivtrogen) and electrophoresed according to the manufacturer's instructions. Gels were electrophoretically transferred to P-nitrocellulose membrane (Millipore, Billerica, MA) and blocked in LiCOR blocking buffer (LiCOR, Lincoln, NE) for 1 hr at 25°C. Membranes were then incubated in blocking buffer containing rabbit anti-phospho-p44/42 antibody (1∶1000, Cell Signaling Technology, Inc., Danvers, MA) for 1 hr at 25°C. Membranes were washed 3 times with Tris (50 mM) buffered saline containing 0.1% Tween-20 (TBS-T). Membranes were then incubated in blocking buffer containing donkey anti-rabbit antibody conjugated to IRDye 800 (1∶7500, Rockland Immunochemicals, Inc., Gilbertsville, PA) for 1 hr at 25°C. Membranes were washed 3 times with TBS-T. The fluorescence intensity of each band was quantified using the LiCOR Odyssey. To quantify AKT, JNK, p38 and GSKβ phosphorylation, reactions were stopped by addition of NP40 cell lysis buffer (100 µl, Invitrogen). Substrate phosphorylation was quantified using a Biosource Multiplex Bead Immunoassay kit (Invitrogen) according to the manufacturer's instructions and using a Luminex 100™ instrument (Luminex, Austin, TX).

[2] = molecular target: T1, CB2 receptors; assay: AKT phosphorylation by Luminex multiplex immunoassay in CB2-expressing DBT subclones; type: cell-based; details: for AKT phosphorylation: 1 µM
Experimental: as §1

[3] = test system: DBT cells; assay: Cell viability by WST-1 conversion, wild type DBT cells and DBT subclones; type: cell-based, mouse
Experimental: (§2) Cells were expanded in 24-well plates (10^5 cells per well) in culture media (0.5 ml per well). Once they reached ∼70% confluence, they were rinsed with PBS and kept for an additional 24 hrs in serum-deprived media, at which time drugs or vehicle (DMSO, 0.1%) prepared in 50 µl serum-deprived media were directly added to each well. After 1, 3, or 5 days, cell viability was assessed using the Cell Proliferation Reagent WST-1 (Roche, Indianapolis, IN). Briefly, WST-1 reagent (50 µl) was added to each well for 4 hrs at 37°C with 5% CO2, and then WST-1 products were read at 450 nm using Packard SpectraCount™. Apoptosis was assessed using PI and annexin V (Pacific Blue™, Invitrogen). Briefly, cells were detached using trypsin, rinsed with 25°C PBS and resuspended to a density of 10^6 cells per ml of annexin-binding buffer (10 mM HEPES, 140 mM NaCl, 2.5 mM CaCl2, pH 7.4). PI (100 ng) and annexin V were added to 100 µl of cell suspension and incubated at 25°C for 30 min. Additional annexin-binding buffer was added (400 µl) and samples were sorted (10,000 events) on a LSR II flow cytometer (BD Biosciences, San Jose, CA) and the data analyzed using FlowJo (Tree Star, Inc., Ashland, OR).

[4] = test system: CB1-low DBT cells; assay: Cell viability by WST-1 conversion, CB1-low DBT cells; type: cell-based, mouse
Experimental: as §2

[5] = test system: wild type DBT cells; assay: Cell viability by WST-1 conversion, wild type DBT cells; type: cell-based, mouse
Experimental: as §2

[6] = molecular target: T2, CB1 receptors (Mus musculus, UniProt P47746); assay: Radioligand saturation binding with [3H]CP-55,940 on membranes of CB1-expressing DBT subclones; details: mean of 3–5 determinations
T2 construct: expressed in transfected cells
T2 sequence (P47746 whole entry): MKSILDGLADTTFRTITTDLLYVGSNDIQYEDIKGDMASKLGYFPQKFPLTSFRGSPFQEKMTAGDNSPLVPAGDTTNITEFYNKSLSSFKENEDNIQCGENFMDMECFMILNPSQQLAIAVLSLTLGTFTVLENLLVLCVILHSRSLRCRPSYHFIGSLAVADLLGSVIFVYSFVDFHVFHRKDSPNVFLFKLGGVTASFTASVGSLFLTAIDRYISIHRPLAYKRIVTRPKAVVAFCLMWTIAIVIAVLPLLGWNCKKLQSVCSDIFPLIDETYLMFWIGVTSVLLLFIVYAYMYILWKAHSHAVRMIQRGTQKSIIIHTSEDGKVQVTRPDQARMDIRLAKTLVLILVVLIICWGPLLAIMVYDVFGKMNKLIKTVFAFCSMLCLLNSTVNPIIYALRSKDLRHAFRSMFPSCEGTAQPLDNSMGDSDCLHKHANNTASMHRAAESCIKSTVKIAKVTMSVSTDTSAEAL
Experimental: (§3) Cells (10^6) were expanded in 10 cm dishes using 10 ml culture media. Once they reached ∼70% confluence, they were rinsed with PBS and kept for an additional 24 hrs in serum-deprived media, which is composed of DMEM+GlutaMAX™-I supplemented with fatty acid free bovine serum albumin (0.1%, BSA, Sigma-Aldrich, St. Louis, MO) and insulin-transferin-sodium selenite liquid media (1×, ITS, Sigma-Aldrich). For qPCR, media was removed and cells washed once with 10 ml PBS, then cells were scraped and total RNA isolated using RNeasy extraction kit (QIAGEN) according to the manufacturer's instructions. The following primer and TaqMan probe sequences were generated using Primer Express (Perkin-Elmer Applied Biosystems, Foster City, CA): mCB1 forward, 5′-[…]-3′, reverse, 5′-[…]-3′, probe, 5′-([…])-3′; mCB2 forward, 5′-[…]-3′, reverse, 5′-[…]-3′, probe, 5′-([…])-3′. Total RNA from each sample (2.5 ng) was reverse transcribed in the same 10 µl quantitative PCR reaction mix using the Brilliant Single-Step Quantitative RT-PCR Core Reagent Kit (Stratagene, La Jolla, CA). Combined reactions were carried out on a Stratagene Mx3000P Real-Time Detection System using the following protocol: 30 min single-strand synthesis reaction at 45°C; 40-cycle, two-step PCR amplification (15 sec at 95°C followed by 1 min at 56°C). Duplicate reactions with and without reverse transcriptase were run for each sample. For radioligand binding, media was removed and cells washed once with 10 ml PBS. Cells were scraped in 1 ml buffer (50 mM Tris-HCl, 3 mM MgCl2, 1 mM EDTA, pH 7.4) and pulse homogenized 10 sec using PRO200 tissue homogenizer (PRO Scientific, Oxford, CT). Crude membrane preparations were generated by centrifugation of cell homogenates for 20 min at >10,000×g. Cell pellets were resuspended in buffer containing BSA (0.1%, fatty acid free) and 50 µg protein added to siliconized glass tubes for assay. […] Radioactivity on filters was measured using scintillation counter.

[7] = molecular target: T1, CB2 receptors; assay: Radioligand saturation binding with [3H]CP-55,940 on membranes of CB2-expressing DBT subclones; details: mean of 3–5 determinations
Experimental: as §3

[8] = test system: wild-type DBT cells; assay: Radioligand binding with [3H]CP-55,940 on wild-type DBT cells; design: species or system mouse
Experimental: as §3, with “56°C).” for “56°C). Duplicate reactions with and without reverse transcriptase were run for each sample. For radioligand binding, media was removed and cells washed once with 10 ml PBS. Cells were scraped in 1 ml buffer (50 mM Tris-HCl, 3 mM MgCl2, 1 mM EDTA, pH 7.4) and pulse homogenized 10 sec using PRO200 tissue homogenizer (PRO Scientific, Oxford, CT). Crude membrane preparations were generated by centrifugation of cell homogenates for 20 min at >10,000×g. Cell pellets were resuspended in buffer containing BSA (0.1%, fatty acid free) and 50 µg protein added to siliconized glass tubes for assay.”

[9] = test system: ERK1/2 phosphorylation in wild-type DBT cells; assay: ERK1/2 phosphorylation in wild-type DBT cells; type: cell-based, mouse; details: 1 µM
Experimental: as §1, with “Gels were electrophoretically transferred to P-nitrocellulose membrane (Millipore, Billerica, MA) and blocked in LiCOR blocking buffer (LiCOR, Lincoln, NE) for 1 hr at 25°C. Membranes were then incubated in blocking buffer containing rabbit anti-phospho-p44/42 antibody (1∶1000, Cell Signaling Technology, Inc., Danvers, MA) for 1 hr at 25°C. Membranes were washed 3 times with Tris (50 mM) buffered saline containing 0.1% Tween-20 (TBS-T). Membranes were then incubated in blocking buffer containing donkey anti-rabbit antibody conjugated to IRDye 800 (1∶7500, Rockland Immunochemicals, Inc., Gilbertsville, PA) for 1 hr at 25°C.” left out

[10] = test system: AKT phosphorylation in wild type DBT cells; assay: AKT phosphorylation in wild type DBT cells; type: cell-based, mouse; details: 1 µM
Experimental: as §1, with “Gels were electrophoretically transferred to P-nitrocellulose membrane (Millipore, Billerica, MA) and blocked in LiCOR blocking buffer (LiCOR, Lincoln, NE) for 1 hr at 25°C. Membranes were then incubated in blocking buffer containing rabbit anti-phospho-p44/42 antibody (1∶1000, Cell Signaling Technology, Inc., Danvers, MA) for 1 hr at 25°C. Membranes were washed 3 times with Tris (50 mM) buffered saline containing 0.1% Tween-20 (TBS-T). Membranes were then incubated in blocking buffer containing donkey anti-rabbit antibody conjugated to IRDye 800 (1∶7500, Rockland Immunochemicals, Inc., Gilbertsville, PA) for 1 hr at 25°C.” left out

[11] = molecular target: T1, CB2 receptors; assay: JNK and p38 phosphorylation by Luminex multiplex immunoassay in CB2-high DBT clone; type: cell-based; details: 1 µM, lasted throughout 30 min incubation
Experimental: as §1, with “Gels were electrophoretically transferred to P-nitrocellulose membrane (Millipore, Billerica, MA) and blocked in LiCOR blocking buffer (LiCOR, Lincoln, NE) for 1 hr at 25°C. Membranes were then incubated in blocking buffer containing rabbit anti-phospho-p44/42 antibody (1∶1000, Cell Signaling Technology, Inc., Danvers, MA) for 1 hr at 25°C. Membranes were washed 3 times with Tris (50 mM) buffered saline containing 0.1% Tween-20 (TBS-T). Membranes were then incubated in blocking buffer containing donkey anti-rabbit antibody conjugated to IRDye 800 (1∶7500, Rockland Immunochemicals, Inc., Gilbertsville, PA) for 1 hr at 25°C.” left out

[12] = test system: GSK-3β phosphorylation; assay: GSK-3β phosphorylation by Luminex multiplex immunoassay in DBT subclones; type: cell-based, mouse; details: any of the subclones, throughout 30 min incubation; data not shown
Experimental: as §1, with “Gels were electrophoretically transferred to P-nitrocellulose membrane (Millipore, Billerica, MA) and blocked in LiCOR blocking buffer (LiCOR, Lincoln, NE) for 1 hr at 25°C. Membranes were then incubated in blocking buffer containing rabbit anti-phospho-p44/42 antibody (1∶1000, Cell Signaling Technology, Inc., Danvers, MA) for 1 hr at 25°C. Membranes were washed 3 times with Tris (50 mM) buffered saline containing 0.1% Tween-20 (TBS-T). Membranes were then incubated in blocking buffer containing donkey anti-rabbit antibody conjugated to IRDye 800 (1∶7500, Rockland Immunochemicals, Inc., Gilbertsville, PA) for 1 hr at 25°C.” left out

[13] = test system: wild-type DBT cells; assay: Apoptosis by propidium iodide and annexin V FACS, wild-type DBT cells; type: cell-based, mouse; details: 10 µM
Experimental: as §2

[14] = test system: CB1-low DBT cells; assay: Apoptosis by propidium iodide and annexin V FACS, CB1-low DBT cells; type: cell-based, mouse; details: 1 µM
Experimental: as §2

[15] = antagonist 3 µM added 10 min before CP, CB2 subclones

T1 sequence (P47936 whole entry): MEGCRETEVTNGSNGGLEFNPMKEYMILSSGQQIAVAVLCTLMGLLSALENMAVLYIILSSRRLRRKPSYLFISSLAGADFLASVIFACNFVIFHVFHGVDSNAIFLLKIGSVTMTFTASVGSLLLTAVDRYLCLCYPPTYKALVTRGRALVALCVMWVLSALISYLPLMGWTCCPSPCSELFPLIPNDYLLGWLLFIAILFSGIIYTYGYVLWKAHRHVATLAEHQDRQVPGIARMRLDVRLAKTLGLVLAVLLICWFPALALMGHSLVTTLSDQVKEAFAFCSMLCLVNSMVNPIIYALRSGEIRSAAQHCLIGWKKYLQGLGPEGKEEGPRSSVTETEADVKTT

## 5- (4-chloro-3- methyl- phenyl)-1- [(4- methylphenyl)methyl]- N-(1,3,3- trimethylnorbornan- 2- yl)- pyrazole- 3- carboxamide [SR144528]
[1]; [15]
  Effect on CP-55,940 (1 µM)-induced ERK1/2 phosphorylation: significantly attenuated
[2]; [15]
  Effect on CP-55,940 (1 µM)-induced AKT phosphorylation: antagonized

## CCN(CC)CCCCN1c2ccccc2Oc2ccc(Cl)cc21.Cl [Inhibitor X]
[3]; 5 µM added 10 min before CP, DBT subclones normally resistant, 5 days
  Effect on killing by 1 µM CP-55,940 (WST-1): uncovered the ability of 1 µM CP-55,940 to kill
[3]; 5 µM, DBT subclones, 5 days
  Effect by itself on cell viability (WST-1): no effect

## COc1cccc(-c2cc(=O)c3ccccc3o2)c1N [PD98059]
[4]; inhibitor 10 µM pretreatment, CB1-low DBT cells
  Effect on 1 µM CP-55,940-induced killing: partially prevented
[5]; inhibitor 10 µM pretreatment, wild-type DBT cells
  Effect on 10 µM CP-55,940-induced killing: partially prevented

## Cc1c(C(=O)NN2CCCCC2)nn(-c2ccc(Cl)cc2Cl)c1-c1ccc(Cl)cc1 [SR141716A, 5-(4-chlorophenyl)-1-(2,4-dichlorophenyl)-4-methyl-N-(1-piperidyl)-1H-pyrazole-3-carboxamide]
[4]; antagonist 5 µM pretreatment, CB1-low DBT cells
  Effect on 1 µM CP-55,940-induced killing: blocked
[5]; antagonist 5 µM pretreatment, wild type DBT cells
  Effect on 10 µM CP-55,940-induced cell death: did not affect

## CCCCCCC(C)(C)c1ccc([C@@H]2C[C@H](O)CC[C@H]2CCCO)c(O)c1 [[^3H]CP-55,940]
[6]; CB1-high subclone E5
  Kd: 0.7 nM
[6]; CB1-low subclone E3
  Kd: 0.8 nM
[6]; CB1-mid subclone E7
  Kd: 0.8 nM
[7]; CB2-high subclone 1D6
  Kd: 0.6 nM
[7]; CB2-low subclone 2G5
  Kd: 0.8 nM
[7]; CB2-mid subclone 2H1
  Kd: 0.4 nM
[8]
  Radioligand binding: no binding

## (−)-cis-3-[2-hydroxy-4-(1,1-dimethylheptyl)phenyl]-trans-4-(3-hydroxypropyl) cyclohexanol [CP-55,940]
[1]; 1 µM, 3 min, CB2-low, CB2-mid, CB2-high subclones
  ERK1/2 phosphorylation above vehicle-treated controls: significant increase
[1]; 1 µM, CB2-expressing subclones
  Time of peak of ERK1/2 phosphorylation: 3 min
  Time of return of ERK1/2 phosphorylation to basal: 10 to 20 min
[9]
  ERK1/2 phosphorylation: did not affect
[2]; CB2-high clone, during the entire 30 min incubation
  AKT phosphorylation: above 250 % of basal
[2]; CB2-high subclone
  AKT phosphorylation: most pronounced increase
[2]; CB2-low and CB2-mid subclones
  AKT phosphorylation: small, but significant increase
[10]
  AKT phosphorylation: did not increase
[11]
  Phosphorylation state of JNK and p38: 150–170 % of basal
[12]
  Phosphorylation state of GSK-3β: did not significantly affect
[4]; 1 µM, CB1-low DBT subclone, five days after treatment
  Cell death (WST-1): ~50%
[4]; CB1-low DBT cells, Figure 3c, read-out: EC50 of cell killing (WST-1)
  EC50: 560 nM
[5]; wild type DBT cells, Figure 3c, read-out: EC50 of cell death (WST-1)
  EC50: 5000 nM
[3]; 10 µM, wild type DBT cells and all six subclones, five days after treatment
  Cell death (WST-1): 35–90%
[13]; 3 days after treatment
  Cell death by apoptosis: 27%
[13]; after five days
  Cell death by apoptosis: 78%
[14]; 3 days after treatment
  Cell death by apoptosis: 15%
[14]; after five days
  Cell death by apoptosis: 48%
